How the values were obtained:
[1] = molecular target: Protein arginine N-methyltransferase 8 (Homo sapiens, UniProt Q9NR22); assay: Selectivity interaction (Methyltransferase screen (radiometric assays, panel of 8 PRMTs, 21 protein lysine methyltransferases, 3 DNA methyltransferases, and one RNA methyltransferase)) EUB0000272b PRMT8
[2] = molecular target: N-lysine methyltransferase SMYD2 (Homo sapiens) (UniProt Q9NRG4); assay: Selectivity interaction (Methyltransferase screen (radiometric assays, panel of 8 PRMTs, 21 protein lysine methyltransferases, 3 DNA methyltransferases, and one RNA methyltransferase)) EUB0000272b SMYD2
[3] = test system: Epidermal growth factor receptor (Homo sapiens), P00533 [L858R,T790M]; assay: (§1) Selectivity interaction (KinomeScan (DiscoverX)) EUB0000092b EGFR; conditions: at 10 µM
[4] = test system: Epidermal growth factor receptor (Homo sapiens), P00533 [L858R]; assay: as §1; conditions: at 10 µM
[5] = molecular target: Epidermal growth factor receptor (Homo sapiens, UniProt P00533); assay: as §1; conditions: at 10 µM
[6] = test system: Epidermal growth factor receptor (Homo sapiens), P00533 [T790M]; assay: as §1; conditions: at 10 µM
[7] = test system: Epidermal growth factor receptor (Homo sapiens), P00533 [UNDEFINED MUTATION]; assay: as §1; conditions: at 10 µM
[8] = molecular target: Mitogen-activated protein kinase 9 (Homo sapiens, UniProt P45984); conditions: at 10 µM
[9] = molecular target: Bromodomain adjacent to zinc finger domain protein 2A (Homo sapiens, UniProt Q9UIF9); assay: Selectivity interaction (Bromodomain panel (DSF asssay)) EUB0000270b BAZ2A
Aurora kinase B = Aurora kinase B (Homo sapiens, UniProt Q96GD4); assay: Selectivity interaction (ActivX KiNativ screen (kinase selectivity in THP-1 cell lysates)) EUB0000639a AURKB; format: subcellular; conditions: lysate, at 0.04 µM
[10] = molecular target: T1, Mitogen-activated protein kinase 14 (Homo sapiens, UniProt Q16539); assay: Selectivity interaction (ActivX KiNativ screen (kinase selectivity in THP-1 cell lysates)) EUB0000639a MAPK14; format: subcellular; conditions: lysate, at 0.04 µM
[11] = molecular target: CDK9/cyclin T1 (Homo sapiens) (UniProt O60563+P50750); assay: Selectivity interaction (Kinase panel (Invitrogen)) EUB0000639a CDK9; format: protein-complex assay; conditions: at 200 nM
[12] = molecular target: Cyclin-dependent kinase 14 (Homo sapiens) (UniProt O94921); assay: Selectivity interaction (ActivX KiNativ screen (kinase selectivity in THP-1 cell lysates)) EUB0000639a CDK14; format: subcellular; conditions: lysate
[13] = molecular target: T2, Aurora kinase A (Homo sapiens) (UniProt O14965); assay: Selectivity interaction (ActivX KiNativ screen (kinase selectivity in THP-1 cell lysates)) EUB0000639a STK6; format: subcellular; conditions: lysate, at 0.01 µM
T2 sequence (whole entry): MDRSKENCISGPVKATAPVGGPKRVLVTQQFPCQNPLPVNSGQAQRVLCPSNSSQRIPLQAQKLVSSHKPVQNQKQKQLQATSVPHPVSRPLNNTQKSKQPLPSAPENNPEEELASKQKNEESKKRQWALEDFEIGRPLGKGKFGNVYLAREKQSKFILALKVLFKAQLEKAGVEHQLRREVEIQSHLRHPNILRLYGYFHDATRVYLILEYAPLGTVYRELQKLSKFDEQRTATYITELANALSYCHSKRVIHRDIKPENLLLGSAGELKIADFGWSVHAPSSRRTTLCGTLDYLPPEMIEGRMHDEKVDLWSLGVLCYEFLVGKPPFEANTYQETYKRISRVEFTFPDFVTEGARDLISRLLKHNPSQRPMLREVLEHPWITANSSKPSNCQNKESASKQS

[14] = molecular target: Serine/threonine-protein kinase B-raf (Homo sapiens) (UniProt P15056); assay: Selectivity interaction (SelectScreen profiling (Invitrogen)) EUB0000607a BRAF; conditions: at 2 µM
[15] = molecular target: T3, Interleukin-1 receptor-associated kinase 4 (Homo sapiens) (UniProt Q9NWZ3); assay: Selectivity interaction (KinomeScan (DiscoverX)) EUB0000045b IRAK4
T3 sequence (whole entry): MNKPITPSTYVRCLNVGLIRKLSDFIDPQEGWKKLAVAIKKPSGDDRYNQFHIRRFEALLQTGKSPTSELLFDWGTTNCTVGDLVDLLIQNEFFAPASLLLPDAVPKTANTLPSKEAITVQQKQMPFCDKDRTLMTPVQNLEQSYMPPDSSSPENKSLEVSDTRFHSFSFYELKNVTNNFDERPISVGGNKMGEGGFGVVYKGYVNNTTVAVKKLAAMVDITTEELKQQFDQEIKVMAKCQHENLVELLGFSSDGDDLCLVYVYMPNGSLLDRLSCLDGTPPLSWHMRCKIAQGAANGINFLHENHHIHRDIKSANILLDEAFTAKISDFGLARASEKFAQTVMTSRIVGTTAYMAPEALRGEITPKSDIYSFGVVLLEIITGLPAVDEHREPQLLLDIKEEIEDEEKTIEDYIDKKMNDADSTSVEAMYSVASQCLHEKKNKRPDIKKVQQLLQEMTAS

[16] = molecular target: Dual specificity mitogen-activated protein kinase kinase 1 (Homo sapiens, UniProt Q02750); assay: Selectivity interaction (Enzymatic assay) EUB0001199aCl MAP2K1
[17] = molecular target: T1, Mitogen-activated protein kinase 14; assay: Selectivity interaction (Enzymatic assay) EUB0001199aCl MAPK14
[18] = molecular target: Calcium/calmodulin-dependent protein kinase type II subunit alpha (Homo sapiens, UniProt Q9UQM7); assay: Selectivity interaction (KinomeScan (DiscoverX)) EUB0000618a CAMK2A; conditions: at 10 µM
[19] = molecular target: Gastrin/cholecystokinin type B receptor (Homo sapiens) (UniProt P32239); assay: Selectivity interaction (Eurofins CEREP Diversity Profile (receptors and ion channels)) EUB0000279b CCKBR; conditions: at 10 µM
[20] = molecular target: Serine/threonine-protein kinase pim-1 (Homo sapiens, UniProt P11309); assay: Selectivity interaction (Ambit KINOMEscan and KiNATiv profiling in Jurkat cells) EUB0000090b PIM1; format: cell-based; conditions: at 1 µM
[21] = molecular target: Receptor tyrosine-protein kinase erbB-2 (Homo sapiens, UniProt P04626); assay: Selectivity interaction (KinomeScan (DiscoverX)) EUB0001619a ERBB2; conditions: at 1 µM
[22] = molecular target: G protein-coupled receptor kinase 6 (Homo sapiens) (UniProt P43250); assay: Selectivity interaction (ActivX KiNativ screen (ex vivo kinase selectivity in human PBMCs)) EUB0001619a GRK6; format: cell-based; conditions: PBMC, at 1 µM

Chain of Cyclin-dependent kinase 14 (Homo sapiens) (O94921 whole entry): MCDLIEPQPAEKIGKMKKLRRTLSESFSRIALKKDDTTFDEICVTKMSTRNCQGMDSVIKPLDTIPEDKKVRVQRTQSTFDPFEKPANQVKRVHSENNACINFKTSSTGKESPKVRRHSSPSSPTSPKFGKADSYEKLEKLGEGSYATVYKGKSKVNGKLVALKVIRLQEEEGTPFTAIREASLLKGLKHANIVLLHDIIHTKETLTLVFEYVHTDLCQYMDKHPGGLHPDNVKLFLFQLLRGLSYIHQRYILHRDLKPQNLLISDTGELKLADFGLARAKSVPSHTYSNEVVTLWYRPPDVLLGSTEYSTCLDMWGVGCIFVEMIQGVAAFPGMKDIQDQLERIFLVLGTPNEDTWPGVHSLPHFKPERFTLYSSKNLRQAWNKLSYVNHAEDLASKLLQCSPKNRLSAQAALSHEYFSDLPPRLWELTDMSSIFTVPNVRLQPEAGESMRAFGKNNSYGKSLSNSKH
Chain of N-lysine methyltransferase SMYD2 (Homo sapiens) (Q9NRG4 whole entry): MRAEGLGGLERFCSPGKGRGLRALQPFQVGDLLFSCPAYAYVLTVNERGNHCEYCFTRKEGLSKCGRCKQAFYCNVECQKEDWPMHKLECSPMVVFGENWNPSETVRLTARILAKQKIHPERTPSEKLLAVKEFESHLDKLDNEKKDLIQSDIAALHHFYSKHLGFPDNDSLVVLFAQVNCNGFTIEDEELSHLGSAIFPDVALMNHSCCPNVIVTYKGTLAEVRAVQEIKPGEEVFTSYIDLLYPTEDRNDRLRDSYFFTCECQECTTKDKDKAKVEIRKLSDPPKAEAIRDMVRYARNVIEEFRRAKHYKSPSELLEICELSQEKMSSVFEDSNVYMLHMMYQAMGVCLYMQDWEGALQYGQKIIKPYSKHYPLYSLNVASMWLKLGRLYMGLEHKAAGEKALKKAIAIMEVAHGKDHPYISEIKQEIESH
Chain of Protein arginine N-methyltransferase 8 (Q9NR22 2-394 limits assumed): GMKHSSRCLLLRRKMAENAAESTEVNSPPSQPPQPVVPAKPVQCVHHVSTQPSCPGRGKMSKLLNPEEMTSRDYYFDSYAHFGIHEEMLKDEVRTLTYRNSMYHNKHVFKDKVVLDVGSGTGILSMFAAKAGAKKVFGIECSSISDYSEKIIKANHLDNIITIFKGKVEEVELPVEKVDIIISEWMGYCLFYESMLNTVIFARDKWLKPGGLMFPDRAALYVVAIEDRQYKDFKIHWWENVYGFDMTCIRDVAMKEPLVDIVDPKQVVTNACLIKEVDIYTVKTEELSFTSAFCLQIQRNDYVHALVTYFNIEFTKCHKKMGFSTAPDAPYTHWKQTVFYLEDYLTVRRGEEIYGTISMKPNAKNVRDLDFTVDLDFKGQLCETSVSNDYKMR
T1 sequence (Q16539 whole entry): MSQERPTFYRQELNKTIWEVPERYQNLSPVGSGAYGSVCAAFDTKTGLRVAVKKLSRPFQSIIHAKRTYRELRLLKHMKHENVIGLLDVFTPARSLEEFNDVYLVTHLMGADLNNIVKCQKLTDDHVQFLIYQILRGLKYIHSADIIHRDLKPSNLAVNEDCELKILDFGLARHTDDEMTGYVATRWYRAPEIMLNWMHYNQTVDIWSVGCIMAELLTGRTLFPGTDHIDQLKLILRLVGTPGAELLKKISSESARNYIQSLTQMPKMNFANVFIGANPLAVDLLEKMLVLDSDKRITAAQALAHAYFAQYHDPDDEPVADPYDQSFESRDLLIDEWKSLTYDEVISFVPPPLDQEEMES
Chain of Dual specificity mitogen-activated protein kinase kinase 1 (Q02750 whole entry): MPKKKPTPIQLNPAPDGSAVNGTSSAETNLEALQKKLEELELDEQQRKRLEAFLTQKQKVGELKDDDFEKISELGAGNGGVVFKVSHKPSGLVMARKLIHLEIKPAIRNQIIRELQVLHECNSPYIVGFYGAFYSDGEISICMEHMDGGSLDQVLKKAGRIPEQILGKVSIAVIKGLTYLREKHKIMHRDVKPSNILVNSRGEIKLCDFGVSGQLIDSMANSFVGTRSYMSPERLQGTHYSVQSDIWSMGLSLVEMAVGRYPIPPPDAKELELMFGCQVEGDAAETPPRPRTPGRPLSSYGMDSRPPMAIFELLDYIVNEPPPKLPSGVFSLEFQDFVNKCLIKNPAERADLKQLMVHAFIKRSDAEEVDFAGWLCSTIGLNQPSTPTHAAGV
Chain of Epidermal growth factor receptor (Homo sapiens), P00533 [L858R] (P00533 whole entry L858R): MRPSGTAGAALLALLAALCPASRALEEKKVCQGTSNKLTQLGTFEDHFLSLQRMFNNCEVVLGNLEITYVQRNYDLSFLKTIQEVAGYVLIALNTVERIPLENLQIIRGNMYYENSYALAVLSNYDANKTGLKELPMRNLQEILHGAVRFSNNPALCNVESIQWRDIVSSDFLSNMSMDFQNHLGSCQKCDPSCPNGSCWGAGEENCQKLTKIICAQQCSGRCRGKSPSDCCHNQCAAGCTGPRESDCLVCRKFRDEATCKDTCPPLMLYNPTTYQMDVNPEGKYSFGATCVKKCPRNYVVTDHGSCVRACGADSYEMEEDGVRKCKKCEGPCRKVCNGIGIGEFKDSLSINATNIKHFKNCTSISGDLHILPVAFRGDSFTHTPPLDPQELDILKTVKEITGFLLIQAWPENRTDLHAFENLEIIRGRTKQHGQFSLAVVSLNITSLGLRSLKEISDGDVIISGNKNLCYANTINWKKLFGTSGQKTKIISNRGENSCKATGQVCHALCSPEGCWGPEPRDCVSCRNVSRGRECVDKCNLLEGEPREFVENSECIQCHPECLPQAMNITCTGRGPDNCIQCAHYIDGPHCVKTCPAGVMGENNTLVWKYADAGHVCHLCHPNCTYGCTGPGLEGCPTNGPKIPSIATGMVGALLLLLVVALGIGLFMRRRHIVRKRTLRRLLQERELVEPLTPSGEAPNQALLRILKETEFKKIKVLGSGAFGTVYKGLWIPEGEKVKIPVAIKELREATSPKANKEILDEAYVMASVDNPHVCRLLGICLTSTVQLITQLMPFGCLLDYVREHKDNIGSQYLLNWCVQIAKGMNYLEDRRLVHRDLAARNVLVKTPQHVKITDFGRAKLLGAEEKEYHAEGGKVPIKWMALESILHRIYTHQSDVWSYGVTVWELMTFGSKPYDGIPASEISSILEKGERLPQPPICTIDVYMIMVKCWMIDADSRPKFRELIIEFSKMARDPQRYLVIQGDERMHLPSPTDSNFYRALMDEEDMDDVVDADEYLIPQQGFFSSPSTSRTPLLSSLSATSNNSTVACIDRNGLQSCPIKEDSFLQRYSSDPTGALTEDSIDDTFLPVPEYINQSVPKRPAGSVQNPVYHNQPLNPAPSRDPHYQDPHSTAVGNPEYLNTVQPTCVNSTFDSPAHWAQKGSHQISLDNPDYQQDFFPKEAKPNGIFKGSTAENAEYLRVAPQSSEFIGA
Chain of Gastrin/cholecystokinin type B receptor (Homo sapiens) (P32239 whole entry): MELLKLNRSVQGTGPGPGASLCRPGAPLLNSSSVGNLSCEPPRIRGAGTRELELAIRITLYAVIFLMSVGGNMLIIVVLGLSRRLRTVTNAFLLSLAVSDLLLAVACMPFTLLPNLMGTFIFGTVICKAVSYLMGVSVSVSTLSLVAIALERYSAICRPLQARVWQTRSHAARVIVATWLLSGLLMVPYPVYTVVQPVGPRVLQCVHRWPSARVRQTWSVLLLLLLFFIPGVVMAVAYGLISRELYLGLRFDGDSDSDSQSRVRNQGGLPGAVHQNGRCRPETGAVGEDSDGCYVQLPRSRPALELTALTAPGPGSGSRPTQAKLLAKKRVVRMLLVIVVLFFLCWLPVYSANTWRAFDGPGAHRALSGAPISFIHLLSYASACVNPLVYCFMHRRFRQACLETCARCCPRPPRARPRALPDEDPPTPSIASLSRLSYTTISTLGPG
Chain of Aurora kinase B (Q96GD4 whole entry): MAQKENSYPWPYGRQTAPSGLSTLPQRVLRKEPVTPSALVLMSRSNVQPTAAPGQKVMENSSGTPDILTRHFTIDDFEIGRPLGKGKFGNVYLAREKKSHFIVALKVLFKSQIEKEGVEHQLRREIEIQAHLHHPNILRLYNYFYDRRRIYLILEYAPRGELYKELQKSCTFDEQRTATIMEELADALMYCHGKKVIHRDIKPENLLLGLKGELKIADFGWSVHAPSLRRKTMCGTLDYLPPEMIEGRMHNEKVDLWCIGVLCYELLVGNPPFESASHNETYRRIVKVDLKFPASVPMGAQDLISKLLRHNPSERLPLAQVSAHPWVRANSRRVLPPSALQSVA
Chain of Serine/threonine-protein kinase B-raf (Homo sapiens) (P15056 whole entry): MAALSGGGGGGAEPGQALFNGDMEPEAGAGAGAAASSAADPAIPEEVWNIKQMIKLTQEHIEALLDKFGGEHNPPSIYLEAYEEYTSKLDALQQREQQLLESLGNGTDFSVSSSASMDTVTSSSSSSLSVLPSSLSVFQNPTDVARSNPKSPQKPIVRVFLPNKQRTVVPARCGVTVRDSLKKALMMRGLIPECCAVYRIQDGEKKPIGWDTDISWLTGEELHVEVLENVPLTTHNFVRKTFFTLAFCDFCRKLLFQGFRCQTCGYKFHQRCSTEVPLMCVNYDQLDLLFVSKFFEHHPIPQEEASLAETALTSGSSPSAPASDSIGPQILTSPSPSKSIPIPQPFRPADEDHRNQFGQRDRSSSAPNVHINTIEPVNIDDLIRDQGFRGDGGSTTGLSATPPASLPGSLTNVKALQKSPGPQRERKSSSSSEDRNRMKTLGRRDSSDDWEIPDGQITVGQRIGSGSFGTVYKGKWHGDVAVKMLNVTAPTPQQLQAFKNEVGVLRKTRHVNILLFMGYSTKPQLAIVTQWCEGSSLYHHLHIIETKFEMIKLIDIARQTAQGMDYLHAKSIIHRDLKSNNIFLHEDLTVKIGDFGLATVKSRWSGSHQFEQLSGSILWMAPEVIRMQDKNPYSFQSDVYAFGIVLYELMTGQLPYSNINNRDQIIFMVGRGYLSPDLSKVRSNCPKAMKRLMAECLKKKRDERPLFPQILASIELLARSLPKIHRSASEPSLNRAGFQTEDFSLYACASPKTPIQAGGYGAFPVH

`Cc1cc(C)cc([C@H]2c3cc(C)ccc3NC(=O)CN2C(=O)c2ccc(Br)s2)c1` gave a % of activity ([1]; at 1 µM) of 100%, a % of activity ([1]; at 10 µM) of 96.7% and a % of activity ([2]; at 1 µM) of 94.3%. The % of activity ([2]; at 10 µM) was 94.3%.

`CCC(=O)N1CCN(c2ccc(-n3c(=O)ccc4cnc5ccc(-c6cnc7ccccc7c6)cc5c43)cc2C(F)(F)F)CC1` was tested, and the % of control [3] was 100%, the % of control [4] was 100% and the % of control [5] was 85%. The % of control [6] was 100% and the % of control [7] was 100%.

Work on `Cc1cc([C@@H](C)Nc2ccccc2C(=O)O)c2nc(N3CCOCC3)cc(=O)n2c1` [AZD-6482] yielded a % of control [8] of 66%.

Work on `Cc1cc(CN)cc(C)c1-c1ncn(C)c1-c1cncn1C` yielded a dTM [9] of -1.5 K.

`CC[C@@H]1[C@H](F)C(=O)N[C@@H]1COc1nccc2cc(C(N)=O)c(OC)cc12` [ZIMLOVISERTIB] showed a % of inhibition (Aurora kinase B) of -1.3%, a % of inhibition [10] of 5.4% and a % of inhibition [11] of 3.66%. For the same compound, the % of inhibition ([12]; at 0.01 µM) was -6.2%, the % of inhibition ([12]; at 0.04 µM) was 2.9% and the % of inhibition ([12]; at 0.2 µM) was -6.5%. For the same compound, the % of inhibition ([12]; at 1 µM) was 12.2%, the % of inhibition ([12]; at 5 µM) was 16.4% and the % of inhibition [13] was -3.4%.

In the case of `CNC(=O)Nc1ccc(-c2nc(N3CC4CCC(C3)O4)c3cnn(C4CCC5(CC4)OCCO5)c3n2)cc1`, the % of inhibition [14] is reported as 6%.

In the case of `C=CC(=O)Nc1cc(-n2c(=O)ccc3cnc4ccc(-c5ccc(NS(C)(=O)=O)cc5)cc4c32)ccc1C`, the % of control ([15]; at 1 µM) is reported as 84% and the % of control ([15]; at 10 µM) is reported as 100%.

With `CN1Cc2nccc(-c3cn(C)nc3-c3ccc(F)cc3)c2C1=O` the IC50 [16] was 10.2 µM and the IC50 [17] was 0.861 µM.

In the case of `O[C@H]1CC[C@H](Nc2ncc3nc(Nc4c(F)cc(F)cc4F)n([C@H]4CCOC4)c3n2)CC1`, the % of control [18] is reported as 95%.

`CC(=O)c1cc(-c2ccccc2OCC2CC2)c2ncccn12` was tested, and the % of control [19] was 95%.

`CN(C)C/C=C/C(=O)Nc1ccc(C(=O)N2CCCC(Nc3ncc(Cl)c(-c4c[nH]c5ccccc45)n3)C2)cc1` (stereo not given) showed a % of control [20] of 100%.

Work on `N#Cc1cccc(-c2c[nH]c3ncnc(N4CCOCC4)c23)c1` yielded a % of control [21] of 73% and a % of inhibition [22] of 11%.
